Values quoted from earlier work, collected in patent publication US20070135444A1, “Treatment of neuroblastoma” (priority 2002, published 2007).

Conditions: pediatric phase I trial; no maximal dose tolerated reached up to this dose

## CS(=O)(=O)O.Cc1ccc(NC(=O)c2ccc(CN3CCN(C)CC3)cc2)cc1Nc1nccc(-c2cccnc2)n1 [SALT I]
  maximal dose tolerated: > 570 mg/m^2/day
